In PMC8467532, “DYRK1A Kinase Inhibitors Promote β-Cell Survival and Insulin Homeostasis” (Cells, 2021):

Experiments:
INS-1E and MIN6 cells [1] = assay: GSIS and insulin, C-peptide, glucagon staining (flow cytometry, confocal); format: cell-based, rat, mouse; design: key to insulin+ / glucagon+ / C-peptide+: ↑: moderate; ↑↑: most potent
Experimental: Cells were cultured in a low glucose medium (5.5 mM) for 24 h. After this medium was changed to lower glucose medium (2 mM) for 2 h and then for high glucose medium (25 mM) for 30 min, media were harvested and/or cells were used for further analysis.
The presence of insulin, glucagon, C-peptide, Ki67, and DYRK1A was assessed in MIN6 and INS-1E pancreatic cell lines. Before imaging, cells were seeded onto slides at a density of 1 × 10^5 cells and maintained at 37 °C in 95% atmospheric air and 5% CO2 in a humidified atmosphere for 24 h. After washing with fresh medium, cells were incubated with 5 µM inhibitor solution for 24 h. After this time, the solution was replaced with a culture medium for another 48 h. The cells were fixed. Then after washing and permeabilization, they were incubated with specific antibodies diluted in PBS. Next, the cells were incubated for 10 min with Hoechst33342 (Sigma-Aldrich). After incubation, at 37 °C, in the dark, the cells were washed twice with HBSS (Gibco), the slide was transferred to a microscope table, and the cells were visualized under a Zeiss LSM 880 confocal microscope (Carl Zeiss, Jena, Germany) with a 63× immersion objective. Images were analyzed by Zeiss ZEN Software.
The presence of insulin, glucagon, C-peptide, Ki67 and DYRK1A was assessed in MIN6 and INS-1E pancreatic cell lines. Before analysis, cells were seeded onto slides at a density of 1 × 10^5 cells and maintained at 37 °C in 95% atmospheric air and 5% CO2 in a humidified atmosphere for 24 h. After washing with fresh medium, cells were incubated with 5 µM inhibitor solution for 24 h. After this time, the solution was replaced with a culture medium for another 48 h. The cells were then detached from the plate using trypsin. The cells were fixed. Then after washing and permeabilization, they were incubated with specific antibodies diluted in PBS. Cells were analyzed with BDAccuri flow cytometer and calculated using FlowJo software (Ashland, Oregon-based FlowJo LLC, a subsidiary of Becton Dickinson).

INS-1E cells = assay: Cell cycle analysis (propidium iodide); format: cell-based, rat; conditions: 5 µM, 24 h
Experimental: To synchronize cell cultures, we used the serum starvation protocol. INS-1E cells were seeded in a 6-well plate in a growth medium with 20% FBS overnight. Then the cultures were rinsed by PBS and change to a serum-free medium. After serum starvation for 24 h, cells were released into the cell cycle by the addition of serum and 5 µM inhibitor solution for 24 h. The cells were then detached from the plate using trypsin. Then after washing, they were incubated with 50 µg/mL propidium iodide for 15 min in the dark. Cells were analyzed with the BDAccuri flow cytometer and calculated using FlowJo software.

DYRK1A kinase domain = molecular target: T1, DYRK1A kinase domain (Homo sapiens, UniProt Q13627); assay: MST direct binding assay
T1 construct: kinase domain of DYRK1A (126–490) was cloned into pET24a with C-terminal His-tag; made in house; host or cells: E. coli BL21 (DE3) RIL

NFAT = NFAT luciferase reporter assay in HEK 293 NFAT cell line expressing DYRK1A; format: cell-based
Experimental: The Renilla luciferase reporter assay was performed in HEK 293 NFAT cell line, constitutively expressing DYRK1A, NFAT and Renilla luciferase under the control of an NFAT-RE promoter. The cells were seeded at 10,000 per well in 96-well white plates (Cellstar, Greiner; Burlington, MA, United States). The following day cells were incubated with the indicated concentration of inhibitor for 30 min, then the medium was changed, and cells were stimulated with 1 μM ionomycin and 10 nM PMA for 5 h. Next, the cell lysate was harvested to measure luciferase activity with Renilla-Glo Luciferase Assay System (Promega, Wisconsin, United States). All experiments were carried out in triplicates.

INS-1E and MIN6 cells [2] = assay: Ki67 proliferation analysis; format: cell-based, rat, mouse
[3] = combination with TGF-β inhibitors

O=c1ccc2cnc3ccc(-c4cn[nH]c4)cc3c2n1-c1ccc(F)cc1C(F)(F)F [AC27, 1-(4-fluoro-2-(trifluoromethyl)phenyl)-9-(1H-pyrazol-4-yl)benzo[h][1, 6]naphthyridin-2-one]
glucagon level (INS-1E and MIN6 cells [1]; 5 μM, compound alone): balanced (lower) glucagon level | insulin/C-peptide secretion (INS-1E and MIN6 cells [1]; GSIS, compound alone): higher insulin/C-peptide secretion | C-peptide+ (INS-1E and MIN6 cells [1]; Table 2, Cell lines): ↑↑ | glucagon+ (INS-1E and MIN6 cells [1]; Table 2, Cell lines): ↑ | insulin+ (INS-1E and MIN6 cells [1]; Table 2, Cell lines): ↑↑ | time the effect remained stable (INS-1E and MIN6 cells [1]; after inhibitor action): up to 12 days | glucagon level after GSIS (INS-1E and MIN6 cells [1]; [3]): reduced | insulin/C-peptide secretion (INS-1E and MIN6 cells [1]; [3]): markedly improved | increase in insulin expression (INS-1E and MIN6 cells [1]; discussion statement): more than 60% | number of cells in the G2/M phase (INS-1E cells): increase | Kd (DYRK1A kinase domain; MST direct binding, 20 nM fluorescent-labelled DYRK1A kinase domain): 1800 ± 500 nM | Kd (DYRK1A kinase domain; Table 2, Biochemistry, unit inferred): 1830 ± 543 nM | activity relative to harmine in NFAT assay (NFAT; 1 µM AC27 gives same activity as 10 µM harmine): ~10 times | increase of NFAT activity (NFAT; low concentration range 0.03 µM–1 µM): ≤ 6 fold | induction of β-cell proliferation (Ki67 labeling of insulin-labeled cells) (INS-1E and MIN6 cells [2]; 5 μM, vs untreated cells): most potent in inducing β-cell proliferation | Ki67 labeling index in β-cells (INS-1E and MIN6 cells [2]; combined with RepSox or LY364947): significant increase in the Ki67 labeling index | Ki67 labeling index, difference to that without TGF-β inhibition (INS-1E and MIN6 cells [2]; combined with TGF-β inhibitors): about 5% | Ki67 labeling index (proliferation rate) (INS-1E and MIN6 cells [2]; combined with TGF-β inhibitors (RepSox, LY364947), 5 μM each): > 12%
